This note sets out measurements from the NIST ThermoML archive (doi:10.1021/acs.jced.7b01024).

This series is described as follows: Boiling temperature at pressure P. The note with it: 101.3 kPa; Liquid; Ebulliometric method (Recirculating still).

Numbers after ± are expanded uncertainties.

Turning to `CC(=O)OCC(C)C` [2-methylpropyl ethanoate], the “Boiling temperature at pressure P” value was determined as 116.60 ± 0.2 °C.

For `C=CCO` [2-propenol], the “Boiling temperature at pressure P” value was found to be 96.8 ± 0.44 °C.

As for `CCCCOC(C)=O` [butyl ethanoate], the “Boiling temperature at pressure P” value was 126.00 ± 0.2 °C.

`CCCCOC(=O)CC` [butyl propanoate]: the “Boiling temperature at pressure P” value is 145.10 ± 0.2 °C.
